In brackets after ≈: the same amount, converted by molar mass.
What was measured:
[1] = test system: Mycobacterium tuberculosis; test: Antimycobacterial activity against multidrug-resistant Mycobacterium tuberculosis 375 by microplate Alamar blue assay; type: functional
[2] = test system: Mycobacterium tuberculosis; test: Antimycobacterial activity against multidrug-resistant Mycobacterium tuberculosis 375; type: functional

| SMILES | MIC [1] [µM] | MIC [2] [µM] |
| --- | --- | --- |
| O=C(/C=C/c1ccc2c(c1)OCO2)NCc1ccccc1 | 667 (≈ 188 µg/mL) |  |
| CN(C)c1ccc(CNC(=O)/C=C/c2ccc3c(c2)OCO3)cc1 | 3560 (≈ 1150 µg/mL) |  |
| CC(C)=CCOc1ccc(/C=C/C(=O)NCC(C)C)cc1 | 1200 (≈ 345 µg/mL) |  |
| O=C(/C=C/c1ccc2c(c1)OCO2)NCc1ccc(N2CCC(C(F)(F)F)CC2)cc1 | 2310 (≈ 1000 µg/mL) |  |
| O=C(/C=C/c1ccc2c(c1)OCO2)NCc1ccccc1Cl | 792 (≈ 250 µg/mL) |  |
| O=C(/C=C/c1ccc2c(c1)OCO2)NCc1ccc(C(F)(F)F)cc1F | 1020 (≈ 375 µg/mL) |  |
| O=C(/C=C/c1ccc2c(c1)OCO2)NCc1cc(F)cc(F)c1 | 788 (≈ 250 µg/mL) |  |
| O=C(/C=C/c1ccc2c(c1)OCO2)NCc1ccc(N2CCC(c3ccc(F)cc3)CC2)cc1 | 545 (≈ 250 µg/mL) |  |
| COc1cccc(CNC(=O)/C=C/c2ccc3c(c2)OCO3)c1 | 803 (≈ 250 µg/mL) |  |
| CC(C)CNC(=O)/C=C/c1ccc2c(c1)OCO2 [FOGARAMIDE] |  | 1010 (≈ 250 µg/mL) |
